IC50 data for 34 molecules are collected here from patent publication US20240308992A1 (Biopolar Youtang(Guangdong) Pharmaceutical Co., Ltd., priority 2021, published 2024).

Molecules are shown by their SMILES.

The assay concerns the target T1, Drak2 (Homo sapiens, UniProt O94768).
T1 sequence (O94768 1-372): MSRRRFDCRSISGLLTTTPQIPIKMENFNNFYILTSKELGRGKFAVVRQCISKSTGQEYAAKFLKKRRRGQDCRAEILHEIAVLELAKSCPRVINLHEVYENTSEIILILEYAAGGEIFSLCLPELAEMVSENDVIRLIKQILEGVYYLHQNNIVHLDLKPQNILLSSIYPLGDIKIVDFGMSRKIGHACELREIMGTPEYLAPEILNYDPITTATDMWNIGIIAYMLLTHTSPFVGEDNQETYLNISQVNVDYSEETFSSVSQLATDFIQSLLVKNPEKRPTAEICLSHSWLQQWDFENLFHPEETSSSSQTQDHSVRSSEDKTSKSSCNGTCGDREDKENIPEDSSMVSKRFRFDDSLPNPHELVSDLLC
In words: Drak2 activity test, ADP-Glo kinase assay (Promega). Type of assay: biochemical. As to conditions: inhibition of Drak2 kinase activity, 2 h room temperature, activity range classes, read-out: IC50_Drak2.

Regarding `CCCCC(=O)Nc1csc(-c2cncc(-c3cn(C)nc3C)n2)c1` [Example 216, N-{5-[6-(1,3-dimethylpyrazol-4-yl)pyrazin-2-yl]thiophen-3-yl}pentanamide], the IC50 was under 10 nM.
As for `CCCCC(=O)Nc1csc(-c2cncc(-c3ccc(C(=O)Nc4nccs4)c(OC)c3)n2)c1` [Example B8, 2-methoxy-4-(6-(4-pentanamidothiophen-2-yl)pyrazin-2-yl)-N-(thiazol-2-yl)benzamide], the IC50 was in the range of 1000 to 10000 nM.
Regarding `COc1ccc(-c2cncc(-c3cc(NC(=O)C4CC4)cs3)n2)cc1OC` [Example A6, N-(5-(6-(3,4-dimethoxyphenyl)pyrazin-2-yl)thiophen-3-yl)cyclopropanecarboxamide], the IC50 was 101 to 1000 nM.
On to `CCCCC(=O)Nc1csc(-c2cncc(-c3cncs3)n2)c1` [Example 217, N-{5-[6-(1,3-thiazole-5-yl)pyrazin-2-yl]thiophen-3-yl} pentanamide], for which the IC50 was in the range of 11 to 100 nM.
The result for `CCCC(=O)Nc1csc(-c2cncc(-c3ccc(C(=O)Nc4nnn[nH]4)c(OC)c3)n2)c1` [Example B9, 2-methoxy-4-(6-(4-butyramidothiophen-2-yl)pyrazin-2-yl)-N-(1H-tetrazol-5-yl)benzamide] reads 101 to 1000 nM; that for `CCCCC(=O)Nc1csc(-c2cncc(-c3ccc(-c4nc(=O)o[nH]4)c(OC)c3)n2)c1` [Example A39, N-(5-(6-(3-methoxy-4-(5-oxo-2,5-dihydro-1,2,4-oxadiazol-3-yl)phenyl)pyrazin-2-yl)thiophen-3-yl)pentanamide], 101 to 1000 nM; that for `COc1cc(-c2cncc(-c3cc(NC(=O)C(N)C4CCC4)cs3)n2)ccc1C(=O)N(C)C1CCN(C)CC1` (stereo not shown) [Example B88, 4-(6-(4-(2-amino-2-cyclobutylacetamido)thiophen-2-yl)pyrazin-2-yl)-2-methoxy-N-methyl-N-(1-methylpiperidin-4-yl)benzamide], 101 to 1000 nM.
The result for `CCN(CC)C(=O)Nc1csc(-c2cncc(-c3ccc(OC)c(OC)c3)n2)n1` [Example D4, 3-(2-(6-(3,4-dimethoxyphenyl)pyrazin-2-yl)thiazol-4-yl)-1,1-diethylurea] reads 1000 to 10000 nM.
As for `CCCCC(=O)Nc1csc(-c2cncc(C3CCN(S(C)(=O)=O)CC3)n2)c1` [Example D7, N-(5-(6-(1-(methylsulfonyl)piperidin-4-yl)pyrazin-2-yl)thiophen-3-yl)pentanamide], the figure is 1000 to 10000 nM; as for `CCCCC(=O)Nc1csc(-c2cncc(-c3ccc(S(C)(=O)=O)cc3)n2)c1` [Example A40, N-(5-(6-(4-(methylsulfonyl)phenyl)pyrazin-2-yl)thiophen-3-yl)pentanamide], 101 to 1000 nM; as for `COc1cc(-c2cncc(-c3cc(NC(=O)CC4CCC4)cs3)n2)ccc1C(=O)N(C)C1CC2(C1)CN(C1CC1)C2` [Example B97, 4-(6-(4-(2-cyclobutylacetamido)thiophen-2-yl)pyrazin-2-yl)-N-(2-cyclopropyl-2-azaspiro[3.3]heptan-6-yl)-2-methoxy-N-methylbenzamide], 11 to 100 nM.
For `COc1cc(-c2cncc(-c3cc(NC(=O)CC4CC(OCc5ccccc5)C4)cs3)n2)ccc1C(=O)N(C)C1CC2(C1)CN(C)C2` (stereo not shown) [Example 207, 4-(6-(4-(2-(3-(benzyloxy)cyclobutyl)acetylamino)thiophen-2-yl)pyrazin-2-yl)-2-methoxy-N-methyl-N-(2-methyl-2-azaspiro [3.3]heptane-6-yl) benzamide], the IC50 lay within 11 to 100 nM.
Turning to `COc1cc(-c2cncc(-c3cc(NC(=O)CC4CCCC4)cs3)n2)ccc1C(=O)Nc1nnnn1C` [Example B27, 2-methoxy-4-(6-(4-(2-cyclopentylacetamido)thiophen-2-yl)pyrazin-2-yl)-N-(1-methyl-1H-tetrazol-5-yl)benzamide], the IC50 was in the range of 11 to 100 nM.
The result for `COc1cc(-c2cncc(-c3cc(NC(=O)C4CCC4)cs3)n2)ccc1Cl` [Example A15, N-(5-(6-(4-chloro-3-methoxyphenyl)pyrazin-2-yl)thiophen-3-yl)cyclobutanecarboxamide] reads 101 to 1000 nM; that for `CCCCC(=O)Nc1csc(-c2cncc(-c3cc(OC)c(OC)cc3C(N)=O)n2)c1` [Example A26, 4,5-dimethoxy-2-(6-(4-pentanamidothiophen-2-yl)pyrazin-2-yl)benzamide], 1000 to 10000 nM; that for `CCCCC(=O)Nc1csc(-c2cncc(-c3ccc(-c4cc(O)no4)c(OC)c3)n2)c1` [Example A36, N-(5-(6-(4-(3-hydroxyisoxazol-5-yl)-3-methoxyphenyl)pyrazin-2-yl)thiophen-3-yl)pentanamide], 101 to 1000 nM.
As for `CCCCCC(=O)Nc1csc(-c2cncc(-c3ccc(C(=O)Nc4nnn[nH]4)c(OC)c3)n2)c1` [Example B16, 2-methoxy-4-(6-(4-hexanamidothiophen-2-yl)pyrazin-2-yl)-N-(1H-tetrazol-5-yl)benzamide], the figure is 101 to 1000 nM.
As for `CCCCC(=O)Nc1csc(-c2cncc(-c3ccc(C(=O)N(C4CC4)C4CCN(C)CC4)c(OC)c3)n2)c1` [Example B76, N-cyclopropyl-2-methoxy-N-(1-methylpiperidin-4-yl)-4-(6-(4-pentanamidothiophen-2-yl)pyrazin-2-yl)benzamide], the figure is 11 to 100 nM.
With `COc1cc(-c2cncc(-c3cc(NC(=O)C4CCCCC4)cs3)n2)ccc1C(=O)O` [Example B6, 4-(6-(4-(cyclohexanecarboxamido)thiophen-2-yl)pyrazin-2-yl)-2-methoxybenzoic acid], the IC50 was 101 to 1000 nM.
In the case of `COc1cc(-c2cncc(-c3cc(NC(=O)CC4CCC4)cs3)n2)ccc1[S+](C)[O-]` (stereo not shown) [Example A47, 2-cyclobutyl-N-(5-(6-(3-methoxy-4-(methylsulfinyl)phenyl)pyrazin-2-yl)thiophen-3-yl)acetamide], the IC50 was in the range of 101 to 1000 nM.
`CCCCCCCC(=O)Nc1csc(-c2cncc(-c3ccc(C(=O)Nc4nnn[nH]4)c(OC)c3)n2)c1` [Example B18, 2-methoxy-4-(6-(4-octanamidothiophen-2-yl)pyrazin-2-yl)-N-(1H-tetrazol-5-yl)benzamide]: the IC50 was over 10000 nM.
The result for `COc1cc(-c2cncc(-c3cc(NC(=O)C(C)(C)C4CCC4)cs3)n2)ccc1C(=O)N(C)C1CCN(C)CC1` [Example B100, 4-(6-(4-(2-cyclobutyl-2-methylpropanamido)thiophen-2-yl)pyrazin-2-yl)-2-methoxy-N-methyl-N-(1-methylpiperidin-4-yl)benzamide] reads 11 to 100 nM; that for `COc1cc(-c2cncc(-c3cc(NC(=O)CC4CCC4)cs3)n2)ccc1C(=O)N(C)OC` [Example B81, 4-(6-(4-(2-cyclobutylacetamido)thiophen-2-yl)pyrazin-2-yl)-N,2-dimethoxy-N-methylbenzamide], 11 to 100 nM.
The result for `COc1cc(-c2cncc(-c3cc(NC(=O)CC45CC(C4)C5)cs3)n2)ccc1C(=O)N1CCOCC1` [Example B45, 2-(bicyclo[1.1.1]pentan-1-yl)-N-(5-(6-(3-methoxy-4-(morpholine-4-carbonyl)phenyl)pyrazin-2-yl)thiophen-3-yl)acetamide] reads 11 to 100 nM; that for `COc1ccc(OC)c(-c2cncc(-c3cc(NC(=O)C4CCC4)cs3)n2)c1` [Example A14, N-(5-(6-(2,5-dimethoxyphenyl)pyrazin-2-yl)thiophen-3-yl)cyclobutanecarboxamide], 1000 to 10000 nM.
As for `COc1cc(-c2cncc(-c3cc(NC(=O)CC4CC(F)C4)cs3)n2)ccc1C(=O)N(C)C1CCN(C)CC1` (stereo not shown) [Example B90, 4-(6-(4-(2-(3-fluorocyclobutyl)acetamido)thiophen-2-yl)pyrazin-2-yl)-2-methoxy-N-methyl-N-(1-methylpiperidin-4-yl)benzamide], the figure is under 10 nM; as for `CCCCC(=O)Nc1csc(-c2cncc(-c3ccc(O)c(OC)c3)n2)c1` [Example 181, N-{5-[6-(4-hydroxy-3-methoxyphenyl)pyrazin-2-yl]thiophen-3-yl}pentanamide], 11 to 100 nM.
Regarding `COc1cc(-c2cncc(-c3cc(NC(=O)CC4CCC4)cs3)n2)ccc1OCCN1CCSCC1` [Example 190], the IC50 was 11 to 100 nM.
As for `COc1cc(-c2cncc(-c3cc(NC(=O)CC4CCC4)cs3)n2)ccc1C(=O)N(C)C1CCN(C)CC1` [Example B63, 4-(6-(4-(2-cyclobutylacetamido)thiophen-2-yl)pyrazin-2-yl)-2-methoxy-N-methyl-N-(1-methylpiperidin-4-yl)benzamide], the figure is under 10 nM; as for `COc1cc(-c2cncc(-c3cc(NC(=O)CC4CCCC4)cs3)n2)ccc1CN1CCOCC1` [Example B36, 2-cyclopentyl-N-(5-(6-(3-methoxy-4-(morpholinomethyl)phenyl)pyrazin-2-yl)thiophen-3-yl)acetamide], 101 to 1000 nM.
The result for `CCCCC(=O)Nc1csc(-c2cncc(-c3ccc(C(=O)N4CCN(C5CCN(C)CC5)CC4)c(OC)c3)n2)c1` [Example B47, N-(5-(6-(3-methoxy-4-(4-(1-methylpiperidin-4-yl)piperazine-1-carbonyl)phenyl)pyrazin-2-yl)thiophen-3-yl)pentanamide] reads 11 to 100 nM; that for `CCCCC(=O)Nc1csc(-c2cncc(-c3cccc(OC)c3)n2)c1` [Example 195, N-{5-[6-(3-methoxyphenyl)pyrazin-2-yl]thiophen-3-yl} pentanamide], 11 to 100 nM; that for `CCCCC(=O)Nc1csc(-c2cncc(-c3ccc(C(=O)N(C)C4CCN(C)CC4)c(F)c3)n2)c1` [Example B73, 2-fluoro-N-methyl-N-(1-methylpiperidin-4-yl)-4-(6-(4-pentanamidothiophen-2-yl)pyrazin-2-yl)benzamide], 101 to 1000 nM.
On to `COc1ccc(-c2cncc(-c3cc(NC(C)=O)cs3)n2)cc1OC` [Example A3, N-(5-(6-(3,4-dimethoxyphenyl)pyrazin-2-yl)thiophen-3-yl)acetamide], for which the IC50 lay in the range of 101 to 1000 nM.
